Reference: patent US10822376B2, “Biologically active peptides” (Baxalta Incorporated, priority 2008, dated 2020)

Columns and labels:
[1] = system: human FVIII inhibited plasma; test: Defined Intrinsic Thrombin Generation Assay (DITGA, triggered by FXIa and phospholipids); assay type: biochemical
FVIII inhibited plasma = test: Defined Dual-Pathway Thrombin Generation Assay (DDPTGA, reagent C high), FVIII inhibited plasma; assay type: biochemical, human; conditions: for Peak IIa FEIBA EU / Peak IIa FVIIa EU / Peak Time FEIBA EU / Peak Time FVIIa EU: FVIII inhibited plasma
FVIII deficient plasma = test: Defined Dual-Pathway Thrombin Generation Assay (DDPTGA, reagent C high), FVIII deficient plasma; assay type: biochemical, human; conditions: FVIII deficient plasma
[2] = system: Factor VIII deficient human plasma; test: DDPTGA (reagent B) in FVIII depleted plasma; assay type: biochemical; conditions: compounds at 50 μM and 80, 90 or 100 μM; further: key: '+' means stimulates; '−' means does not stimulate
Description: Preferably, Reagent C high is used.

Acute toxicology in mice = assay type: in vivo, mouse; conditions: C57BL/6, mouse, in vivo, iv; 60 minutes following administration; read-out: Max dose within toxicity category: No detected toxicity
Description: (§1) Toxicology studies involved monitoring of attitude changes due to toxic effects immediately after application and twice daily; monitoring of body weight; histopathology of brain, heart, kidney, liver, lung. Experiments were performed in C57131/6 mice.
(§2) C57BI/6 mice weighing 18-20 g were administered with compounds in a suitable vehicle i.v. in the tail vein or i.p. or s.c at 10 ml/kg. Quantities of the compounds administered were in the range of 0.075 to 125 mg/kg (i.v.), 15-125 mg/kg (i.p.) and 125 mg/kg (s.c.). There were four mice per group. Attitude changes due to toxic effects were monitored immediately after administration of the compound and for 60 minutes thereafter. Body weight was monitored for five days after administration. At day 5 after administration, mice were culled and autopsy performed. Brain, heart, kidney, liver, lung and spleen were biopsied.
(§3) In the above table, the maximum dose tested giving rise to no detected toxicity, some toxicity or severe toxicity over the period of 60 minutes following administration is reported. “No detected toxicity” indicates no acute toxic observations.

C57BI/6 mice = test: Acute toxicology in mice; assay type: in vivo, mouse; conditions: i.p.; 60 minutes following administration
Description: as §1, §2, §3

[3] = system: Factor V deficient human plasma; test: DDPTGA (reagent B) in FV depleted plasma; conditions: compounds at 50 μM and 80, 90 or 100 μM
Description: (§4) The Defined Dual-Pathway Thrombin Generation Assay is performed as described below, using a commercial test kit (Technothrombin TGA, Technoclone GmbH, Vienna, Austria). […] USA) are incubated four minutes at 37° C. Preferably, Reagent C high is used. Thrombin generation is started by the addition of 40 μl of one of several types of human plasma (37° C.). […] By deviating the original fluorescence data the amount of generated thrombin is calculated from a standard curve constructed using a concentration range of thrombin.
(§5) The in vitro thrombin generation assay based on the cleavage of Z-GGR-AMC to release the fluorophore AMC, described in the specific description, i.e. the Defined Dual-Pathway Thrombin Generation Assay was used to characterise the effect of the compounds in several depleted human plasmas. […] 10 μl peptide dilution, 40 μl TGA substrate and 40 μl plasma were used as described in the specific description.
(§6) The plasmas used in the experiments were fresh frozen and were deficient in Factor V, Factor VII/VIIa, Factor VIII, Factor X or Factor XI (George King Bio-Medical, Inc.). Residual coagulation factor levels of deficient plasmas were specified as less than 1%.
(§7) For each depleted plasma used in the experiments, compounds were tested at two concentrations, namely 50 μM and 80, 90 or 100 μM. A negative control was used, in which no test compound was included.

[4] = system: Factor X deficient human plasma; test: DDPTGA (reagent B) in FX depleted plasma; conditions: compounds at 50 μM and 80, 90 or 100 μM
Description: as §4, §5, §6, §7

[5] = system: Factor XI deficient human plasma; test: DDPTGA (reagent B) in FXI depleted plasma; conditions: compounds at 50 μM and 80, 90 or 100 μM
Description: as §4, §5, §6, §7

[6] = system: Factor VII/VIIa deficient human plasma; test: DDPTGA (reagent B) in FVII depleted plasma; conditions: compounds at 50 μM and 80, 90 or 100 μM
Description: as §4, §5, §6, §7

Description for physchem: Aqueous solubility is measured in PBS at pH 7.4 either in an assay provided by Cerep (France, Catalog ref. 900-11a) or according to the following protocol. The aim of this procedure is to determine the solubility of a drug candidate (analyte) in a buffer, by estimating the saturation concentration of the candidate in the buffer using HPLC. A known concentration of the candidate in an organic solvent is used as a standard. A stock solution of the test compound in DMSO must be prepared as the initial step. […] DMSO stock-solutions are diluted to a final concentration of 50 μM with DMSO (100% reference-solution) and buffer (test-solution) to provide a minimum volume of 500 μL of each. Both solutions are shaken at 25° C. at 950 rpm in an Eppendorf “thermomixer comfort” for at least 60 min. The suspension is centrifuged at 22 330 g for at least two min and 100 μL of the supernatant is transferred into polypropylene-inserts placed in glass vials and closed by snap-ring caps. Alternatively the solutions can be prepared in microtiter plates with half of the previously described starting solvent volume. For the determination of the solubility all samples are analyzed by HPLC in triplicate. Injection volume is at least 10 μL. The obtained data are analyzed by “Chemstation-software” (Agilent, Waldbronn, Germany). The peaks from the analyses of the organic solutions are integrated and the arithmetic mean is reported as “AUC 1” (reference area of known amount injected at the HPLC). […] The ratio of the mean “AUC 2” and “AUC 1” is calculated and thus the percentage of the dissolved amount of compound in buffer is obtained and solubility can be reported in μM.

H-ERMEFDVWDLYFEIVW-NH2 [Peptide A09]
Thrombin peak time given as FEIBA equivalent activity ([1]; peptide 6.25 μM): 600 mU/ml | Thrombin peak time given as FEIBA equivalent activity ([1]; peptide 12.5 μM): 742 mU/ml | Thrombin peak time given as FEIBA equivalent activity ([1]; peptide 25 μM): 896 mU/ml | Thrombin peak time given as FEIBA equivalent activity ([1]; peptide 50 μM): 1170 mU/ml | Thrombin peak time given as FEIBA equivalent activity ([1]; peptide 100 μM): 1365 mU/ml | Activity in the Defined Intrinsic Thrombin Generation Assay ([1]; summary): possess activity | Peak IIa FEIBA EU (FVIII inhibited plasma; peptide 25 μM): BLS (BLS = below lowest standard.) | Peak IIa FVIIa EU (FVIII inhibited plasma; peptide 25 μM): BLS (BLS = below lowest standard.) | Peak Time FEIBA EU (FVIII inhibited plasma; peptide 25 μM): 7.9 mU/ml | Peak Time FVIIa EU (FVIII inhibited plasma; peptide 25 μM): 0.2 nM | Peak IIa FEIBA EU (FVIII inhibited plasma; peptide 50 μM): 8.6 mU/ml | Peak IIa FVIIa EU (FVIII inhibited plasma; peptide 50 μM): BLS (BLS = below lowest standard.) | Peak Time FEIBA EU (FVIII inhibited plasma; peptide 50 μM): BLS (BLS = below lowest standard.) | Peak Time FVIIa EU (FVIII inhibited plasma; peptide 50 μM): BLS (BLS = below lowest standard.) | Activity in the Defined Dual-Pathway Thrombin Generation Assay (FVIII inhibited plasma; summary, FVIII inhibited or deficient plasma): possess activity | Peak IIa FVIII EU (FVIII deficient plasma; peptide 25 μM): BLS (BLS = below lowest standard.) | Peak Time FVIII EU (FVIII deficient plasma; peptide 25 μM): 15.6 mU/ml | Peak IIa FVIII EU (FVIII deficient plasma; peptide 50 μM): BLS (BLS = below lowest standard.) | Peak Time FVIII EU (FVIII deficient plasma; peptide 50 μM): 27.2 mU/ml | Stimulation of thrombin generation [2]: + | NOAEL at 1 h (Acute toxicology in mice): 15 mg/kg | Max dose within toxicity category: No detected toxicity (C57BI/6 mice): 15 mg/kg | solubility kinetic (physchem; pH 7.4): 63 µM | solubility (physchem; pH 7.4, Aqueous solubility): 63 µM | solubility (physchem; pH 7.4, Solubility in PBS pH 7.4): ≥ 25 µM | Stimulation of thrombin generation [3]: − | Stimulation of thrombin generation [4]: + | Stimulation of thrombin generation [5]: + | Stimulation of thrombin generation [6]: +
